# Source: PubChem BioAssay (NCI)
#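 Method: 48-hour compound exposure of cells in 96-well plates, five concentrations, linear interpolation of endpoints. TGI denotes the concentration required for complete inhibition of growth.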
# What was measured:
# Test in all cases: inhibition of tumour cell growth, NCI panel, 48 h
# [1] = system: K-562 leukemia
# [2] = system: RXF 393 renal
# [3] = system: HCC-2998 colon
# [4] = system: UACC-257 melanoma
# [5] = system: MCF7 breast
# [6] = system: NCI-H522 lung
# [7] = system: 786-0 renal
# [8] = system: NCI/ADR-RES ovarian
# [9] = system: SR leukemia
# [10] = system: UACC-62 melanoma
# [11] = system: OVCAR-5 ovarian
# [12] = system: COLO 205 colon
# [13] = system: U251 CNS
# [14] = system: OVCAR-4 ovarian
# [15] = system: DU-145 prostate
# [16] = system: HCT-116 colon
# [17] = system: HS 578T breast
# [18] = system: NCI-H23 lung
# [19] = system: KM12 colon
# [20] = system: SK-MEL-5 melanoma
# [21] = system: RPMI-8226 leukemia
# [22] = system: SK-MEL-2 melanoma
# [23] = system: A498 renal
# [24] = system: CCRF-CEM leukemia
# [25] = system: SK-OV-3 ovarian
# [26] = system: SF-539 CNS
# [27] = system: MOLT-4 leukemia
# [28] = system: SF-268 CNS
# [29] = system: SNB-75 CNS
# [30] = system: A549 NSCLC
# [31] = system: T-47D breast
# [32] = system: HOP-92 NSCLC
# [33] = system: ACHN renal
# [34] = system: SK-MEL-28 melanoma
# [35] = system: NCI-H460 lung
# [36] = system: SF-295 CNS
# [37] = system: NCI-H226 lung
# [38] = system: LOX IMVI melanoma
# [39] = system: EKVX NSCLC
# [40] = system: MALME-3M melanoma
# [41] = system: CAKI-1 renal
# [42] = system: MDA-MB-435
# [43] = system: SW-620 colon
# [44] = system: PC-3 prostate
# [45] = system: HL-60(TB) leukemia
# [46] = system: OVCAR-8 ovarian
# [47] = system: HT29 colon
# [48] = system: M14 melanoma
# [49] = system: HOP-62 NSCLC
# [50] = system: IGROV1 ovarian
# [51] = system: MDA-MB-231 breast
# [52] = system: MDA-N
# [53] = system: HCT-15 colon
# [54] = system: SN12C renal
# [55] = system: OVCAR-3 ovarian
# [56] = system: SNB-19 CNS
structure (smiles),measurement,setting,value
CCOC(=O)c1c(SCc2ccccc2)nc2c3ccccc3ccn12,TGI,[1],> 100 µM
same,TGI,[2],> 100 µM
same,TGI,[3],> 100 µM
same,TGI,[4],> 100 µM
same,TGI,[5],> 100 µM
same,TGI,[6],> 100 µM
same,TGI,[7],> 100 µM
same,TGI,[8],> 100 µM
same,TGI,[9],> 100 µM
same,TGI,[10],> 100 µM
same,TGI,[11],> 100 µM
same,TGI,[12],> 100 µM
same,TGI,[13],> 100 µM
same,TGI,[14],> 100 µM
same,TGI,[15],> 100 µM
same,TGI,[16],> 100 µM
same,TGI,[17],58.3 µM
same,TGI,[18],> 100 µM
same,TGI,[19],> 100 µM
same,TGI,[20],> 100 µM
same,TGI,[21],> 100 µM
same,TGI,[22],> 100 µM
same,TGI,[23],> 100 µM
same,TGI,[24],> 100 µM
same,TGI,[25],> 100 µM
same,TGI,[26],> 100 µM
same,TGI,[27],> 100 µM
same,TGI,[28],> 100 µM
same,TGI,[29],> 100 µM
same,TGI,[30],> 100 µM
same,TGI,[31],> 100 µM
same,TGI,[32],27.5 µM
same,TGI,[33],> 100 µM
same,TGI,[34],> 100 µM
same,TGI,[35],> 100 µM
same,TGI,[36],> 100 µM
same,TGI,[37],> 100 µM
same,TGI,[38],> 100 µM
same,TGI,[39],> 100 µM
same,TGI,[40],> 100 µM
same,TGI,[41],> 100 µM
same,TGI,[42],> 100 µM
same,TGI,[43],> 100 µM
same,TGI,[44],> 100 µM
same,TGI,[45],> 100 µM
same,TGI,[46],> 100 µM
same,TGI,[47],> 100 µM
same,TGI,[48],> 100 µM
same,TGI,[49],> 100 µM
same,TGI,[50],> 100 µM
same,TGI,[51],> 100 µM
same,TGI,[52],> 100 µM
same,TGI,[53],> 100 µM
same,TGI,[54],> 100 µM
O=C(Nc1ccc(Cl)cc1)c1cc2c(cc1Cl)Sc1nccn1S2(=O)=O,TGI,[1],> 100 µM
same,TGI,[2],> 100 µM
same,TGI,[3],> 100 µM
same,TGI,[5],> 100 µM
same,TGI,[6],> 100 µM
same,TGI,[7],> 100 µM
same,TGI,[8],> 100 µM
same,TGI,[9],> 100 µM
same,TGI,[55],> 100 µM
same,TGI,[56],> 100 µM
same,TGI,[11],> 100 µM
same,TGI,[12],> 100 µM
same,TGI,[13],39.6 µM
same,TGI,[14],> 100 µM
same,TGI,[15],> 100 µM
same,TGI,[16],> 100 µM
same,TGI,[17],97.4 µM
same,TGI,[19],> 100 µM
same,TGI,[20],> 100 µM
same,TGI,[22],> 100 µM
same,TGI,[23],> 100 µM
same,TGI,[24],> 100 µM
same,TGI,[25],> 100 µM
same,TGI,[26],> 100 µM
same,TGI,[27],> 100 µM
same,TGI,[28],> 100 µM
same,TGI,[29],25.2 µM
same,TGI,[30],> 100 µM
same,TGI,[31],> 100 µM
same,TGI,[33],> 100 µM
same,TGI,[34],> 100 µM
same,TGI,[35],> 100 µM
same,TGI,[36],> 100 µM
same,TGI,[37],> 100 µM
same,TGI,[38],> 100 µM
same,TGI,[39],> 100 µM
same,TGI,[40],> 100 µM
same,TGI,[41],> 100 µM
same,TGI,[42],> 100 µM
same,TGI,[43],> 100 µM
same,TGI,[44],> 100 µM
same,TGI,[46],> 100 µM
same,TGI,[47],> 100 µM
same,TGI,[48],> 100 µM
same,TGI,[49],> 100 µM
same,TGI,[50],> 100 µM
same,TGI,[51],> 100 µM
same,TGI,[52],> 100 µM
same,TGI,[53],> 100 µM
same,TGI,[54],> 100 µM
